From patent publication US20240115416A1, “SEGMENTED EVA INTRAVAGINAL RINGS” (priority 2019, published 2024) come the findings set out here.

The nature of the data set: Pharmacokinetics after single intravenous bolus of E2 and P in sheep. It counts as in vivo. The following applies: Dorset crossbred, plasma, E2 160 μg, P 10 mg, mean; for AUC(0-inf): n = 2; for clearance: n = 2, read-out: CL, total body clearance (converted); for half-life: n = 2, read-out: T1/2, terminal half-life (converted); for Vd: n = 2, read-out: Vz, volume of distribution based on terminal elimination phase. The source says:
Standard noncompartmental PK analysis methods were used.

As to `C[C@]12CC[C@@H]3c4ccc(O)cc4CC[C@H]3[C@@H]1CC[C@@H]2O` [E2, 17β-estradiol], the AUC(0-inf) was 1.79 ng·h/mL, the clearance is 1490 mL/min, the half-life is 133 min and the Vd turned out to be 287 L.

With `CC(=O)[C@H]1CC[C@H]2[C@@H]3CCC4=CC(=O)CC[C@]4(C)[C@H]3CC[C@]12C` [P, progesterone], the AUC(0-inf) stood at 20 ng·h/mL, the clearance is 8330 mL/min, the half-life is 165 min and the Vd worked out at 1980 L.

As a reminder, the AUC(0-inf) is total exposure, with the tail of the curve extrapolated. As a reminder, the clearance is the volume of plasma or blood freed of the substance per unit of time.
